This note sets out measurements from patent US12662688B2, “Site-selective deuteration of amino acids through dual protein catalysis” (Wisconsin Alumni Research Foundation, priority 2022, dated 2026).

The test system of series [1] is DsaD/E complex. Description: Preparative-scale Cα/Cβ-deuteration with DsaD and DsaE clarified lysates in D2O. The format is biochemical, Streptomyces scopuliridis. Here is the method:
FIG. 5. ^1H NMR analysis of site-selective deuteration of L-Leu. Reaction conditions: 20 mM L-Leu 2.5% v/v DsaD clarified lysate, 2.5% v/v DsaE clarified lysate (when needed), 50 mM sodium phosphate (pD 8.4), 0.1 mM PLP, D2O (99.9% D).
FIG. 8. Preparative-scale and site-selective deuteration of amino acids. Conditions: 10-20 mM amino acid, 2.5% v/v DsaD clarified lysate, 2.5% v/v DsaE clarified lysate, 50 mM sodium phosphate (pD 8.4), 0.1 mM PLP, D2O (99.9%).
General procedure for milligram-scale biocatalytic deuteration: A 4-dram scintillation vial was charged with amino acid (10-20 mM final concentration), Na3PO4 buffer pD 8.4 (50 mM final concentration), PLP (100 μM final concentration), DsaD clarified cell lysate (2.5% v/v), DsaE clarified cell lysate (if applicable) (2.5% v/v), and D2O (or dH2O) to the appropriate final volume. The reaction vessel was placed in an incubator at 37° C. for 16 h. Reaction progress was monitored by UPLC-MS. After reaction completion, the reaction mixture was quenched with an equivalent volume of acetone and centrifuged (4,000 rpm, 10 min) to remove denatured protein. Supernatant was transferred to a clean beaker, the decanted supernatant was concentrated to remove acetone by rotary evaporation and loaded onto a preparative reverse-phase C18 column pre-equilibrated with water. Purification was performed via gradient elution on an Isolera One Flash Purification system (Biotage). Fractions bearing product (confirmed by UPLC-MS sampling of fraction tubes) were pooled and dried by rotary evaporation. The product was then resuspended in a minimal quantity of water, transferred to a pre-weighed 20 mL vial, frozen, and lyophilized.

Series [2] has as its system DsaD/E complex. Description: Analytical-scale Cα/Cβ H/D exchange with purified DsaD and DsaE. The format is biochemical, Streptomyces scopuliridis. To be noted: 10 mM substrate, 5 μM DsaD, 50 μM DsaE (10:1), 37° C., 8 h. On the procedure: FIGS. 3A-3C. Optimization of H/D exchange reactions and evaluation of the substrate scope. FIG. 3A. Optimization of Cβ-deuteration by increasing equivalents of partner protein DsaE. FIG. 3B. Evaluation of substrate scope of dual-protein-catalyzed Cα/Cβ deuteration under optimized conditions. FIG. 3C. UV-visible spectroscopy used to evaluate non-native substrate binding to DsaD. Reaction conditions: 10 mM amino acid substrate, 50 μM DsaE, 5 μM DsaD (10:1), 50 mM sodium phosphate (pD 8.4), 0.1 mM PLP, D2O, 37° C., 8 h. Reactions performed in duplicate, and percentage isotope incorporation is reported as the average of the replicates.
General procedure analytical scale deuteration reactions: α/β deuteration reactions were performed as follows. A 1 mL Eppendorf tube was charged with amino acid (10-20 mM final concentration), Na3PO4 buffer pD 8.4 (50 mM final concentration), PLP (100 μM final concentration), purified enzymes or appropriate lysate and D2O and to the appropriate final volume (typically 50 μL). Reactions were carried out at 37° C. for 8 h and quenched by the addition of 3 volumes of acetonitrile. Precipitated biomolecules were pelleted by centrifugation (16,000×g, 10 min) and samples were processed as described below.
(§1) Marfey's derivatization of analytical scale reactions: Derivatization of the resulting analytical scale product mixture (to increase overall signal and enable reverse phase chromatographic analysis) was achieved by treatment with Marfey's reagent^2 (1-fluoro-2-4-dinitrophenyl-5-L-alanine amide, L-FDAA) using the following protocol. 25 μL of quenched reaction mix (final amine concentration, 1.6 mM) was added to an Eppendorf tube with 50 μL of 15 mM NaHCO3 (final concentration, 5 mM) and 75 μL of 5 mM L-FDAA (final concentration, 2.5 mM). Derivatization reactions were carried out for 10-12 h before quenching with 150 μL of 60 mM HCl dissolved in acetonitrile. Final reaction analysis was carried out by UPLC-DAD-MS and quantitation as described below.
(§2) Quantitation of deuteration in analytical scale reactions: Deuteration reactions were analyzed by UPLC-DAD-MS with single ion recording (SIR) channels set to record a spectrum with the appropriate isotopic mass in positive mode. The area under the curve of recorded SIR peaks was obtained and normalized to account for natural isotopic abundance distributions (e.g. ^13C, ^15N, ^2H, ^34S, etc). Percent deuterium incorporation was calculated by the formula below. These measurements were carried out in an iterative fashion to measure Cα deuteration and Cβ deuteration.

The next series concerns the target DsaD (Streptomyces scopuliridis, UniProt A0A0D5CCB2). The series is described as follows: UV-vis spectroscopy of amino acid binding to DsaD. Particulars: 20 μM DsaD, pH 8.0, 25° C. On the procedure:
UV-Vis Spectroscopy: Data were collected between 600 and 300 nm on a UV-2600 Shimadzu spectrophotometer (Shimadzu, Kyoto, Japan) with a semi-micro quartz cuvette (Starna Cells, Atascadero, California, USA) at 25° C. DsaD stock solutions were diluted to 20 μM in 50 mM sodium phosphate pH 8.0. For observation of substrate binding, amino acids were added at concentrations ranging from 2.5-10 mM. Spectra from 600-300 nm were collected after a 2-minute incubation period. Amino acid stocks were prepared as 100 mM stocks in deionized water.

For another series, the target named is DsaD/DsaE complex (Streptomyces scopuliridis, UniProt A0A0D5CCB2). The series is described as follows: Steady-state kinetic analysis of H/D exchange of L-Ile by DsaD with partner protein DsaE. It counts as biochemical. On the procedure: (§3) FIGS. 2A-2E. Steady-state kinetic analysis of H/D exchange by the Ile epimerization system. FIG. 2A. Steady-state kinetic analysis describing Cβ-deuteration^a of L-Ile under varied equivalents of partner enzyme DsaE. FIG. 2B. Steady-state kinetic analysis of Cβ-deuteration rates^a at a constant 1 mM L-Ile, measured against increasing equivalents of DsaE. FIG. 2C. Steady-state kinetic analysis of Cα-deuteration^a of L-Ile in the presence and absence of partner protein DsaE. FIG. 2D. Proposed mechanism of selective deuterium incorporation at Cα and Cβ catalyzed by dual protein catalysis. FIG. 2E. UV-visible spectrum of DsaD in the absence and presence of L-Ile.^a Measurement of initial rates was performed in duplicate at 24° C. Conditions: 0.1-10 mM L-Ile, 3 μM DsaD, 50 mM sodium phosphate (pD 8.4), and 0.1 mM PLP in D2O (99.9%). Proteins were exchanged into a 50 mM sodium phosphate-D2O (pD 8.4) solution prior to reaction initiation to minimize proton contamination (<1% H2O). Following quench with MeCN, crude reaction products were subjected to functionalization with Marfey's reagent (L-FDAA) to enable analysis by reverse-phase chromatography and quantification of isotope incorporation by mass spectrometry.
Sequence of DsaD/DsaE complex (A0A0D5CBB6 entry or part of it, one chain of several): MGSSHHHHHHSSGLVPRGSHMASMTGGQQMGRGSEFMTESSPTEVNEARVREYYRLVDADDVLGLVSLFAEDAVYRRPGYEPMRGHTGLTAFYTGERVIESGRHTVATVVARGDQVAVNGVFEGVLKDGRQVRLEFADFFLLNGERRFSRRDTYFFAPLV
as §1, §2
Kinetic analysis of biocatalytic L-Ile deuteration: Initial rates of α- or β-deuteration were obtained by means of end-point assay using the quantitation protocol for analytical scale reactions as described above. All reagents were prepared in D2O (99.9% D) and protein stocks were dialyzed (3 exchanges over 3 h at 4° C.) into 50 mM sodium phosphate buffer dissolved in D2O (pD 8.4) using a slide-a-lyzer device with a 3,000 Da cutoff. Reactions were performed at 25° C. in 1 mL Eppendorf tubes. Michaelis constants (KM) for α- and β-deuteration of L-Ile were determined using the concentration range of 0.1-10 mM L-Ile using 3 μM DsaD. Partner protein (DsaE) concentrations were consistent within each experiment and separate experiments were performed using varied equivalents of partner protein (0-50 equiv). Initial velocities were measures in duplicate or triplicate for at least 6 different substrate concentrations for each set of conditions tested. Measurements of the impact of partner protein (DsaE) concentration on the initial rate of β-deuteration were carried out using 1 mM L-Ile, 3 μM DsaD and varying DsaE concentrations between 3 μM-600 μM (1-200 equiv). Under the minimal proton contamination conditions of this assay (99.9% D2O), Cα and Cβ deuteration are assumed to have occurred without back transfer to proton. The data were fit using the Michaelis-Menten equation implemented in Prism.

Substrate in series [3]: CC[C@H](C)[C@H](N)C(=O)O
Described as above. The format is biochemical, Streptomyces scopuliridis. To be noted: pH 8.4. On the procedure:
as §3, §1
Quantitation of deuteration in analytical scale reactions: Deuteration reactions were analyzed by UPLC-DAD-MS with single ion recording (SIR) channels set to record a spectrum with the appropriate isotopic mass in positive mode. The area under the curve of recorded SIR peaks was obtained and normalized to account for natural isotopic abundance distributions (e.g. ^13C, ^15N, ^2H, ^34S, etc). Percent deuterium incorporation was calculated by the formula below. […]
Kinetic analysis of biocatalytic L-Ile deuteration: Initial rates of α- or β-deuteration were obtained by means of end-point assay using the quantitation protocol for analytical scale reactions as described above. […] Michaelis constants (KM) for α- and β-deuteration of L-Ile were determined using the concentration range of 0.1-10 mM L-Ile using 3 μM DsaD. […]

Where [4] appears, read: DsaD and DsaE clarified lysates, D2O, 5% 1H-water.
Setting [5] is: lower substrate loading (10 mM).

On to `[2H]C([2H])(C(C)C)[C@]([2H])(N)C(=O)O` [L-Leu-2,3,3-d3], for which, in the series with DsaD/E complex [1] (setting [4]), the “deuterium incorporation at Cα” value is reported as 95% and the “deuterium incorporation at Cβ” value turned out to be 86%.

On to `[2H]C([2H])(c1ccccc1)[C@]([2H])(N)C(=O)O` [L-Phe-2,3,3-d3], for which, in the series with DsaD/E complex [1] (setting [5]), the “deuterium incorporation at Cα” value was determined as 95% and the “deuterium incorporation at Cβ” value amounted to 85%.

On to `CSCC[C@H](N)C(=O)O` [Met, methionine], for which, in the series with DsaD/E complex [2], the “D-incorporation at Cα” value was “high levels of exchange” and the “D-incorporation at Cβ” value is “moderate levels of D-incorporation”.

Consider `CSC[C@H](N)C(=O)O` [S-Me-Cys, S-methylcysteine], for which, in the series with DsaD/E complex [2], the “D-incorporation at Cα” value is listed as “high levels of exchange” and the “D-incorporation at Cβ” value was “moderate levels of D-incorporation”.

For the molecule `N[C@@H](CO)C(=O)O` [Ser], the “Cα and Cβ D-incorporation” value with DsaD/E complex [2] is given as “did not undergo any deuteration”.

In the case of `C[C@@H](O)[C@H](N)C(=O)O` [Thr, threonine], the “substrate binding to DsaD by UV-vis” value at DsaD is recorded as “no binding was observed”. Further, the “Cα and Cβ D-incorporation” value in the series on DsaD/E complex [2] was “did not undergo any deuteration”.

On to `N[C@@H](Cc1c[nH]c2ccccc12)C(=O)O` [Trp, tryptophan], for which, in the series on DsaD/E complex [2], the “D-incorporation at Cα” value is recorded as “underwent Cα-deuteration” and the “D-incorporation at Cβ” value is “no Cβ-deuteration”.

With `CO[C@H](C)[C@H](N)C(=O)O` [compound 30, L-(OMe)-Thr], the “substrate binding to DsaD by UV-vis” value at DsaD is “enables productive binding”. Moreover, in the series with DsaD/E complex [2], the “D-incorporation at Cα” value is “high levels of deuteration”; the “D-incorporation at Cβ” value was “moderate deuterium incorporation and scrambling of configuration”.

In the case of `COc1ccc(C[C@H](N)C(=O)O)cc1` [compound 34, (OMe)-L-Tyr], in the series on DsaD/E complex [2], the “D-incorporation at Cα” value was 99% and the “D-incorporation at Cβ” value is 74%.

Turning to `CC(C)CCN` [isopentylamine], in the series with DsaD/E complex [2], the “Cα and Cβ D-incorporation” value is “Neither of these substrates underwent deuteration”.

`CC[C@H](C)[C@H](N)C(=O)OC` [methyl ester of Ile]: in the series on DsaD/E complex [2], the “Cα and Cβ D-incorporation” value is on record as “Neither of these substrates underwent deuteration”.

B1: DsaE: small partner protein of aminotransferase DsaD, SEQ ID NO: 3, Streptomyces scopuliridis (protein, listed as Streptomyces scopuliridis)
chain: MTESSPTEVNEARVREYYRLVDADDVLGLVSLFAEDAVYRRPGYEPMRGHTGLTAFYTGERVIESGRHTVATVVARGDQVAVNGVFEGVLKDGRQVRLEFADFFLLNGERRFSRRDTYFFAPLV
modifications: DsaE
Regarding B1, the Km in the series with DsaD/DsaE complex (1 mM L-Ile, 3 μM DsaD, initial rate of Cβ-deuteration vs DsaE, read-out: KM for the formation of the active DsaD/DsaE complex) amounted to 40 ± 5 µM. Further, the “DsaE concentration at plateau of Cβ-deuteration rate” value with DsaD/DsaE complex (1 mM L-Ile, 3 μM DsaD, 100:1 ratio) is “around 0.3 mM”. The “KM for association of DsaD and DsaE” value with DsaD/DsaE complex (as restated in conclusions) came to 40 µM.

B2: DsaD/DsaE complex (Streptomyces scopuliridis) (protein)
chain: MGSSHHHHHHSSGLVPRGSHMASMTGGQQMGRGSEFMHIVTTPVARPLTAQERTERCAAPAFGTAFTEHMVSARWNPEQGWHDAELVPYGPLLLDPATVGLHYGQVVFEGLKAFRSHTGEVAVFRPDAHAERMRASARRLMMPEPPEELFLAAVDALVAQDQEWIPDDPGMSLYLRPILFASERTLALRPAREYRFLLVAFITEGYFGPAQRPVRVWVTDEYSRAAAGGTGAAKCAGNYAGSLLAQEEAQRKGCDQVVWLDPVERNWVEEMGGMNLFFVYEAGGSARLVTPPLTGSLLPGVTRDALLRLAPTLGVPVSEAPLSLEQWRADCASGAITEVFACGTAARISPVNEVSTKDGSWTIGAGAPAEGGVAAGEVTGRLSAALFGIQRGELPDSHSWMRPVSPARQSAIT
As to B2, the Km in series [3] (other: 5 equiv. of DsaE (5:1 DsaE:DsaD)) was 200 ± 10 µM; in series [3] (other: 50 equiv. of DsaE (50:1 DsaE:DsaD)), 300 ± 90 µM; in series [3] (other: one equivalent of DsaE, 3 μM DsaD) it was 2400 ± 680 µM; in series [3] (other: with DsaE bound), 120 ± 20 µM.
